Results: patent publication US6103709A (priority 1998, dated 2000)
Entries after “also recorded” stand apart in the source; their conditions may differ.

Assays:
[1] = test system: chloride channels in ROS 17/2.8 cells
Method: In each case, at least a 3-min period was allowed after the addition of the analog to the bath for currents to reach a stable amplitude value. […] Anion currents were isolated from inward Ba^2+ currents after blockade of Ca^2+ channels with 100 μM Cd^2+.

[2] = test system: vitamin D-deficient chick; assay: Bone Ca2+ mobilizing activity (BCM) in vitamin D-deficient chick; type: in vivo; conditions: i.m.
Method: The bone calcium mobilizing (BCM) assay is also conducted in the vitamin D-deficient chick. The BCM assay determines the relative ability of the tested analog to mobilize bone calcium. The natural hormone 1α,25(OH)2 D3 is very potent in the BCM assay. For example, when 1α,25(OH)2 D3 in inappropriate amounts are used as a drug in human patients, the patient may become hypercalcemic and eventually hypercalciuria with nephrolithiasis and renal failure may develop. The BCM assay was used to determine the relative activity of the analogs of the invention to stimulate bone Ca^2+ mobilization.
(§1) Results of the testing of the analogs of the invention in vivo by the ICA and IBM assays are shown in FIG. 9 which illustrates the capability of analogs LO, EV and HR to stimulate intestinal Ca^2+ absorption (ICA) and bone Ca^2+ mobilizing activity (BCM). In this study, the analogs of 1α,25(OH) were given i.m. to vitamin D-deficient chicks 12 hours before the assay began. The activity produced by 100 pmol of 1α,25(OH)2 D3 was set to be 100% for both ICA and BCM. The dose of the analogs required to achieve a biological response for either ICA or BCM equivalent to the 100 pmol dose of 1α,25(OH)2 D3 was calculated and converted to a percentage. Results are expressed as mean +SE of groups of seven chicks. Each assay included a negative control (-D), that is no vitamin D was present, and a positive control, where vitamin D3 (+D3) was present in 3.25 nmol. […] 1α,25(OH)2 D3 and analogs LO [14α,15α-methano-1α,25(OH)2 D3 ], EV [22-(m(dimethylhydroxymethyl)phenyl)-23,24,25,26,27-pentanor-1α-OH-D3 ] and HR [(22R)-1,25(OH)2 -22,23-diene-D3 ] were administered in 0.0065, 0.065, 0.65 and 6.5 nmol as shown.
(§2) In Vivo Assays of Intestinal Calcium Absorption and Bone Calcium Mobilization
(§3) This example describes assays used for determination of analogs biological activity in intestinal calcium absorption (ICA) and bone calcium mobilization (BCM) assays.
(§4) ICA and BCM were measured in vivo in the vitamin D-deficient chick model system according to Biochem. Pharmacol., 18: 2347 (1969).
(§5) Twelve hours before assay, the chickens, which had been placed on a zero-calcium diet 48 h before assay, were injected intramuscularly with the vitamin metabolite 1α,25(OH)2 D3 or analog (1-10,000 pmoles) dissolved in 0.1 mL of ethanol/1,2-propanediol (1:1, v/v). At the time of assay, 4.0 mg of ^40 Ca^2+ +5 μCi of ^45 Ca^2+ (New England Nuclear) were placed in the duodenum of the birds lightly anesthetized with ether. After 30 min, the birds were decapitated and the blood was collected.
BCM activity was estimated from the increase of total serum calcium concentration, as determined by atomic absorption spectrophotometry.

VDRnuc = assay: Genomic response (summary classification); conditions: Yes/No, Tables 1 and 6
From the text: (§6) Table 6 identifies biological properties, such as genomic response, rapid response, agonist or antagonist function, binding of the analog to the vitamin binding protein (expressed as RCI), binding to the nuclear 1α,25(OH)2 D3 receptor (expressed as RCI) rapid response (expressed as % transcaltachia the rapid hormonal stimulation of intestinal calcium absorption) the classic vitamin D responses such as intestinal Ca^2+ absorption (ICA) and bone Ca^2+ mobilizing activity (BCM) determined in vivo in a vitamin D-deficient chick, and cell differentiation (expressed as % ED50), an assessment of the ability to promote the nuclear response of cell differentiation.

[3] = test system: MAP-kinase p42^mapk in NB4 cells; assay: MAP-kinase activation (p42mapk phosphorylation) in NB4 cells; type: cell-based, human; conditions: 1 or 5 minutes exposure
Method: In order to determine whether MAP-kinase phosphorylation is specific and is altered by 1α,25(OH)2 D3, the time-dependent effects of 1α,25(OH)2 D3 on p42^mapk phosphorylation was examined using human acute promyelocytic leukemia cells (NB4). In this study, the NB4 cells, cultured in 10% charcoal-stripped fetal calf serum (FCS) medium, were treated with 1α,25(OH)2 D3 at 10^-8 M for various time periods. Cells were then extracted and the phosphorylated MAP-kinase was immunoprecipitated with anti-phosphotyrosine antibody and further analyzed by Western blot using the antibodies against p42^mapk.
The lysate was further processed for anti-phosphotyrosine immunoprecipitation. […] After transferring the proteins to the PVDF membrane, the membrane was further incubated with primary anti-p42^mapk antibodies that were (+) or were not (-) pre-exposed to MAP-kinase peptide.
This example describes assays used for measurement of MAP-kinase activity in NB4 cells.
Cell culture of NB4 cells
The cell line is characterized by a translocation involving chromosomes 15 and 17, which is typical of the classical form of APL-M3 in the French-American-British [FAB] classification. NB4 cells were cultured in DMEM/F12 medium with 10% FCS at 5% CO2 balanced air and were routinely passaged as suspension cultures and only passages 8 to 20 were used for each assay.
Immunoprecipitation of Tyrosine-Phosphorylated Proteins
NB4 cells were cultured in 60-mm diameter dishes and treated with 1,25(OH)2 D3 or analogs in 4 ml of DMEM/F12 containing 10% charcoal-stripped FCS.
Insoluble material was removed in a microcentrifuge at 14,000 rpm for 10 min. Protein concentration was determined with a protein assay kit (Bio-Rad Lab, Hercules, Calif.). For immunoprecipitation, the supernatant was incubated with bead-conjugated monoclonal anti-phosphotyrosine antibody overnight at 4° C. The immunoprecipitates containing the tyrosine-phosphorylated proteins were washed four times with freshly-prepared RIPA buffer and further eluted with 2× Laemmli gel buffer.
At this point, the samples were either stored at -20° C. for further use or processed via Western blots. Equal loading of MAP-kinase protein was determined by running the Western blots using polyclonal anti-p42^mapk antibody. For this purpose, samples were aliquoted from each cell extract before immunoprecipitation.
SDS Gel Electrophoresis and Western blot
The membrane was further immunoblotted using a rabbit anti-p42^mapk polyclonal antibody overnight at 4° C. followed by incubation with secondary horseradish peroxidase-conjugated mouse anti-rabbit antibody for 1 hr at 25° C. The phosphorylated MAP-kinase bands were then visualized by enhanced chemiluminescence (ECL). A Ultrascan LX Laser Densitometer (LKB, Bromma, Sweden) scanned the density of the immuno-phosphoprotein bands. The results were normalized by protein loading and further plotted as percent of control of the band density.

keratinocytes = conditions: cell cultures of keratinocytes; cited from earlier work
[4] = test system: vitamin D-deficient chick; assay: Intestinal Ca2+ absorption (ICA) in vitamin D-deficient chick; type: in vivo; conditions: i.m.
Method: A primary fundamental physiological property of vitamin D and particularly 1α,25(OH)2 D3 is its ability to stimulate the intestinal absorption of calcium and facilitate the availability of dietary calcium to the organism. Intestinal absorption of the calcium is measured by the intestinal calcium absorption (ICA) assay, developed in the model of vitamin-D deficient chicks. The ICA assay was used to determine the relative capability of the tested analog to stimulate intestinal Ca^2+ absorption.
as §1, §2, §3, §4, §5
The radioactivity content, which is a measure of ICA, of 0.2 mL of serum was measured in a liquid scintillation counter (Beckman LS8000) to determine the amount of ^45 Ca^2+ absorbed.

VDRmem = assay: Rapid response (summary classification); conditions: Yes/No, Tables 1 and 6
From the text: as §6

rapid responses (VDRmem) = assay: Antagonist function (summary classification); conditions: Yes/No, Tables 1 and 6
From the text: as §6

[5] = relative to 100 pmol 1α,25(OH)2 D3 = 100%, 12 h before assay

Compound: C=C1/C(=C\C=C2/CCC[C@]3(C)[C@@H]([C@H](C)CCCC(C)(C)O)CC[C@@H]23)C[C@@H](O)C[C@@H]1O [Analog C, 1α,25-dihydroxyvitamin D3, reference compound]
- opening of chloride channels (in words) ([1]; 0.05-50 nM, alone, listed as 1α,25(OH)2 D3): concentration-dependent effect on the promotion of anion currents; also recorded: agonist which opens chloride channels
- cells responding with promotion of anion currents ([1]; 1α,25(OH)2 D3 alone, 14 out of 15 cells): 93%
- Classic Vit D Responses BCM [2, 5]: 100%
- BCM (in words) ([2]; vitamin D-deficient chick): most potent stimulator of ICA and BCM
- Genomic Response (VDRnuc): Yes
- phosphorylation / activation of MAP-kinase p42mapk (in words) [3]: significantly increased phosphorylation of p42^mapk in NB4 cells
- production of keratin, involucrin and loricrin (keratinocytes): stimulate the production of keratin, involucrin and loricrin
- Classic Vit D Responses ICA [4, 5]: 100%
- ICA (in words) ([4]; vitamin D-deficient chick): most potent stimulator of ICA and BCM
- Rapid Response (VDRmem): Yes
- Antagonist (rapid responses (VDRmem)): No
